Assay results: patent US6713477B1, “Hydroxamic acid derivatives” (Sumitomo Pharmaceuticals Company, Limited, priority 2000, dated 2004)

Columns and labels:
[1] = target: T1, MMP-13 (Matrix Metalloproteinase-13, Collagenase-3) (Homo sapiens, UniProt P45452); assay: Inhibition assay against MMP-13 (fluorescent MCA-labeled substrate); type: biochemical; details: Table 10; active MMP-13 at 5 nM, 37° C., 1.5 hours; read-out: IC50 MMP13
T1 construct: made in house; host or cells: E. coli BL21 (DE3), pET11a
Source text: To subclone C-terminal truncated form of procollagenase-3 (proMMP-13) cDNA (J.Biol.Chem., 269(24), 16766-16773 (1994)), two synthetic oligonucleotide primer (5′-[…]-3′ and 5′-[…]-3′: the former incorporates sequences for a unique NdeI site (underlined) including initial methionine, and the latter has sequences for a stop codon and BamHI site (underlined)) were used with human chondrocyte cDNA library (CLONTECH) in PCR. With these primers and Pfu DNA polymerase (STRATAGENE) in PCR, 767 bp fragment was generated, which encodes 84 amino acid prosequence and 164 amino acids of mature MMP-13. The fragment was digested with NdaI and BamHI, ligated into the NdeI and BamHI sites of pET11a (STRATAGENE), transformed in E.coli BL21 (DE3) and cultured. The crude cell extract was prepared as described in Biochemistry. The extract was dialyzed against 20 mM Tris-HCl(pH7.2)/5 mM CaCl2/0.02% NaN3 and applied to a SP-Sepharose HP column (1.6×10 cm, Amersham-Pharmacia Biotech), and elution was performed with 50 mL linear gradient of 0 to 0.3 M NaCl (partially purified proMMP-13 was eluted at 0.2 M approximately). The fraction was dialyzed against 20 mM Tris-HCl(pH7.9)/5 mM CaCl2,/200 mM (NH4)2SO4/0.02% NaN3 and applied to a Phenyl Sepharose HP column (1.6×5 cm, Amersham-Pharmacia Biotech), and elution was performed with 20 mL linear gradient of 0.2 to 0 M (NH4)2SO4 (pure proHMP-13 was eluted at 50 mM approximately). The fraction was concentrated by YM-5 ultrafiltration membrane and activated with 4-aminophenylmercuric acetate and active MMP-13 was separated from propeptide fragments by gel filtration chromatography as described in Biochemistry.
(§1) Enzymatic assays were performed in accordance with C. G. Knight's method (FEBS Lett., 296(3), 263-266 (1992)). The fluorescent MCA-labeled substrate, (7-methoxycumaline-4-yl)-Pro-Leu-Gly-Leu-L-[N-(2,4-dinitrophenyl)-L-2,3-diaminopropionyl]-Ala-Arg-NH2 (Peptide Institute. Inc.) was used for measuring the kinetics of inhibition for each tested compound.
(§2) The substrate was incubated at 37° C. for 1.5 hours (MMP-1; for 24 hours) with active MMP (at 20 nM, except MMP-13 at 5 nM) and a test compound in assay buffer containing 100 mM Tris-HCl (pH7.5), 10 mM CaCl2, 100 MM NaCl and 0.05% Brij-35.

[2] = target: T2, MMP-3 (Matrix Metalloproteinase-3, Stromelysin-1) (Homo sapiens, UniProt P08254); assay: Inhibition assay against MMP-3 (fluorescent MCA-labeled substrate); type: biochemical; details: Table 10; active MMP at 20 nM, 37° C., 1.5 hours; read-out: IC50 MMP3
T2 construct: C-terminal truncated form of human prostromelysin cDNA; made in house; host or cells: E. coli
T2 sequence (P08254 100-272 limits assumed): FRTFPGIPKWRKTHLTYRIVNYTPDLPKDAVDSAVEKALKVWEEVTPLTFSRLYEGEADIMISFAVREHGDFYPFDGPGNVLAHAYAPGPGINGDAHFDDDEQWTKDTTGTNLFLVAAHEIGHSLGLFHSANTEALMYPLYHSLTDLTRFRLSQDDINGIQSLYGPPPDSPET
Description: C-terminal truncated form of human prostromelysin cDNA (proMMP-3, cDNA sequence in Nature, 348, 699-704 (1990)) was subcloned, expressed in E.coli and purified as described previously (Biochemistry 30, 6476-6483 (1991)). Activation of proMMP-3 was achieved by treatment with 1 mM 4-aminophenylmercuric acetate at 37° C. for 60 min.
as §1, §2

MMP-9 = target: T3, MMP-9 (Homo sapiens, UniProt P14780); assay: Inhibition assay against MMP-9 (fluorescent MCA-labeled substrate); type: biochemical; details: active MMP at 20 nM, 37° C., 1.5 hours
T3 construct: Both enzymes were commercially available as active forms (Yagai-Cosmobio); purchased Yagai-Cosmobio
T3 sequence (P14780 107-707 limits assumed, species assumed): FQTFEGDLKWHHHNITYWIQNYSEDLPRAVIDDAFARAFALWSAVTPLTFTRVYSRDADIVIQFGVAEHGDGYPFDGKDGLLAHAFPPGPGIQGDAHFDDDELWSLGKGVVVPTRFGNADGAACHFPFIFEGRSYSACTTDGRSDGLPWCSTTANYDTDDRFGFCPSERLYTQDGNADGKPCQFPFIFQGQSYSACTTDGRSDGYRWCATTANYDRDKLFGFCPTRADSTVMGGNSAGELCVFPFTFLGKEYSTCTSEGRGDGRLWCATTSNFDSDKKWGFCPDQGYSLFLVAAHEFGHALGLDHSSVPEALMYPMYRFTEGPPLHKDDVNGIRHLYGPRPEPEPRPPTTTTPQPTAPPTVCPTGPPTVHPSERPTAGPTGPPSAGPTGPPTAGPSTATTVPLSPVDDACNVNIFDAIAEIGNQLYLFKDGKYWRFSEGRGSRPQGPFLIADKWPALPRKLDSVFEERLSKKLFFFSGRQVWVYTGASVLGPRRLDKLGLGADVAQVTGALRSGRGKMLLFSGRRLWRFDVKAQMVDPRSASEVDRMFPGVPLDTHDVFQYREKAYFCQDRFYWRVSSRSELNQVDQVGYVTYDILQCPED
Description: (§3) Both enzymes were commercially available as active forms (Yagai-Cosmobio) and were used for inhibition assays.
as §1, §2

[3] = tested on: TNF-α release from RAW 267.4; assay: Inhibition ELISA for Tumor Necrosis Factor-α (TNF-α) release, LPS-stimulated RAW 267.4 cells; type: cell-based; details: Mus musculus, RAW267.4, LPS-stimulated RAW 267.4, 24 hours, read-out: Inhibition of TNF production at 5 μM
Description: RAW 267.4 (derived from mouse monocytes) was seeded in RPMI1640 containing 10% of FBS (GIBCO BRL) at 100 μL/well (5×10^5 cells/mL) onto 96-well microplates and cultured at 37° C., 5% CO2. After culturing for 4 hours, each test compound diluted in RPMI1640 was added at 50 μL/well. 15 minutes later, […] LPS (DIFCO) diluted in RPMI1640 was added at 50 μL/well and cultured for 24 hours.
TNF-α produced was measured by ELISA as usual. (For example; J. Cellular Physiol. 154, 479 (1993)) Absorbance at 450 nm (normalized at 620 nm) was measured and percentage of the amount of TNF-α release for each tested compound (n=2) was determined (0% for untreated control (n=4), and 100% for LPS stimulation (n=4)).

MMP-2 = target: T4, MMP-2 (Homo sapiens, UniProt P08253); assay: Inhibition assay against MMP-2 (fluorescent MCA-labeled substrate); type: biochemical; details: active MMP at 20 nM, 37° C., 1.5 hours
T4 construct: Both enzymes were commercially available as active forms (Yagai-Cosmobio); purchased Yagai-Cosmobio
T4 sequence (P08253 110-660): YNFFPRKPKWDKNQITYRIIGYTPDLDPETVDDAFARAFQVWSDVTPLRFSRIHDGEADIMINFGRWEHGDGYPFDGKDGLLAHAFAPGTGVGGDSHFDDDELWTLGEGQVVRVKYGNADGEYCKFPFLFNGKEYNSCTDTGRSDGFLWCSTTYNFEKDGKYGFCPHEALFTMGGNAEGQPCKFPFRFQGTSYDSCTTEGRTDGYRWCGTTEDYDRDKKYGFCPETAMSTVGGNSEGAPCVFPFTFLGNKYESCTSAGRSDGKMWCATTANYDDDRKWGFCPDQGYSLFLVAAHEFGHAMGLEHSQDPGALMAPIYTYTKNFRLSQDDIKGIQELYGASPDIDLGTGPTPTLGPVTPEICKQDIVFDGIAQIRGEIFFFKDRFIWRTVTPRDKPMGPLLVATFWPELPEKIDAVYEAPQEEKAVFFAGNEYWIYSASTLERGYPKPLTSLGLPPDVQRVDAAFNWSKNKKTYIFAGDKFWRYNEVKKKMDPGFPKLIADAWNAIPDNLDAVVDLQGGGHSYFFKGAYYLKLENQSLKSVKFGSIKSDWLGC
Description: as §3, §1, §2

Row | IC50 [1] [nM] | IC50 [2] [nM] | IC50 (MMP-9) [nM] | IC50 (MMP-2) [nM] | SMILES | inhibition at 5 µM [3] [%]
1 | 36 | 1500 | < 10 | 300 | O=C(CN1C(=O)/C(=C/c2ccc(Oc3ccccc3)cc2)Sc2ccccc21)NO [Example 368] | 30
2 |  |  | 200 | > 1000 | CCCCOc1ccc(C=C2Sc3ccccc3N(CC(=O)NO)C2=O)cc1 [Example 369] | 
3 |  |  | 110 | 320 | COc1ccc(/C=C2\Sc3ccccc3N(CC(=O)NO)C2=O)cc1 [Example 365, 2H-2(Z)-(4-Methoxybenzylidene)-1,4-benzothiazin-3(4H)-one-4-yl-acetic Acid N-Hydroxylamide] | 20
4 |  |  | > 1000 |  | COc1ccc(C2SCC(=O)N2[C@@H](CC(C)C)C(=O)NO)cc1 (stereo partly drawn) [Example 21, 3-[(1S)-(N-Hydroxyaminocarbonyl)-3-methylbutyl]-2-(4-methoxyphenyl)-1,3-thiazolidine-4-one] | 
